Consider 13 molecules from patent US10562898B2, “Substituted benzenesulfonamides as inhibitors of alpha-4 beta-7 integrin activity” (EA PHARMA CO., LTD., priority 2016, dated 2020).

In the test the target is T1, T cell α4β7 integrin (Homo sapiens, UniProt P13612+P26010).
T1 construct: Blood samples were obtained from healthy volunteers' blood donation; endogenous in cells; host or cells: CD4-positive T cells in whole blood of healthy human volunteers
T1 sequence (P13612 34-1032): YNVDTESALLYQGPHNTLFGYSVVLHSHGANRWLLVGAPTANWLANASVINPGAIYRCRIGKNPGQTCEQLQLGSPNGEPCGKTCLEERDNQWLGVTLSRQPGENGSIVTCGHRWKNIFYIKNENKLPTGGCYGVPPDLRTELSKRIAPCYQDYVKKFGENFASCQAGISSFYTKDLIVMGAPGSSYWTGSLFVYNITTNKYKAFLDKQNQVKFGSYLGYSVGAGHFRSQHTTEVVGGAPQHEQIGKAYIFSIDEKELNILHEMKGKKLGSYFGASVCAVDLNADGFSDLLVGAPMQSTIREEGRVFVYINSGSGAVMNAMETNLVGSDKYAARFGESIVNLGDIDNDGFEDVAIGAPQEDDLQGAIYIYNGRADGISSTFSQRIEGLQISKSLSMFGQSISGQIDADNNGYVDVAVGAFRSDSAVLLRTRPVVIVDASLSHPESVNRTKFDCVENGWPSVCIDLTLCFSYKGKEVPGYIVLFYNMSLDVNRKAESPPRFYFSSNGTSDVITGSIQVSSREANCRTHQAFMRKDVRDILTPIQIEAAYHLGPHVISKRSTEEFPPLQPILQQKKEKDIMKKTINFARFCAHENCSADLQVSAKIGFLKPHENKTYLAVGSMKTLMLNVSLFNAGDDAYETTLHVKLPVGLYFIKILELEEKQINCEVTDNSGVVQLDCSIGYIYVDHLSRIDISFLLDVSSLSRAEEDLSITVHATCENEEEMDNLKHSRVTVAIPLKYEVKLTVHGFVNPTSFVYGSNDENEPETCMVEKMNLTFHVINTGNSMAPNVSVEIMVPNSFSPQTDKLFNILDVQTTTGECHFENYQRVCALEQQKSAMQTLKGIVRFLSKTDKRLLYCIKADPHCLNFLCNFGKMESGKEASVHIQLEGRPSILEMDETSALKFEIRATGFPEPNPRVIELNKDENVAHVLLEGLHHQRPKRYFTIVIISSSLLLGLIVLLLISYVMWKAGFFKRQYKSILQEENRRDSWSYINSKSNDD
T1 sequence (P26010 20-798): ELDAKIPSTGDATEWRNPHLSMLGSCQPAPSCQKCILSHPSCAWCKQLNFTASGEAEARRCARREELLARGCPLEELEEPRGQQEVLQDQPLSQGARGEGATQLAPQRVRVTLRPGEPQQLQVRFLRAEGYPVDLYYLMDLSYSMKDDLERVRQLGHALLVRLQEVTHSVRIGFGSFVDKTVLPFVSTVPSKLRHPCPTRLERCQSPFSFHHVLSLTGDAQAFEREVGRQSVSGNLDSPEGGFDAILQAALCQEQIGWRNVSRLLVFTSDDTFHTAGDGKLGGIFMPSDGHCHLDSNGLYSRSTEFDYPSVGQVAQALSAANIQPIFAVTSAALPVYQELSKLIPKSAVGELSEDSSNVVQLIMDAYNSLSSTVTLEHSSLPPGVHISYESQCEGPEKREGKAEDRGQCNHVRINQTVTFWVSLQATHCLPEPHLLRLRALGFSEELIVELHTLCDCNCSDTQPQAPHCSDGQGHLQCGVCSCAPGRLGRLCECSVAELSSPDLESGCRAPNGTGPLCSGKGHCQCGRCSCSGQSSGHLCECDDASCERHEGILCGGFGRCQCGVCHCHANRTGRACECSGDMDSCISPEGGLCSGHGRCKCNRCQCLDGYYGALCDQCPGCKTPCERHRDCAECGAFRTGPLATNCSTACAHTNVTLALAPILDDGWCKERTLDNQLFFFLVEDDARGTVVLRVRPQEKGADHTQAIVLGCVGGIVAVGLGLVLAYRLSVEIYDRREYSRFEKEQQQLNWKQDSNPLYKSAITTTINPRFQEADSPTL
As to the kind of experiment: Mouse MAdCAM-1/α4β7 integrin binding inhibitory activity evaluation test in whole human blood. Conditions: recombinant mouse MAdCAM-1/Fc, CD4 positive cells, flow cytometry. Format: cell-based. The protocol: (4) Mouse MAdCAM-1/α4β7 Integrin Binding Inhibitory Activity Evaluation Test in Whole Human Blood
Each test substance was measured in terms of the binding inhibitory activity of T cell α4β7 integrin and MAdCAM-1 in human whole blood. Blood samples were obtained from healthy volunteers' blood donation.
A 4 mM MnCl2 solution and each of dilutions of various test substances were added to human whole blood, followed by incubation for 10 minutes. Recombinant mouse MAdCAM-1/Fc (R&D Systems, Inc.) at 10 μg/mL was added to the resultant, and each test sample taken in a total amount of 50 μL was incubated for 30 minutes. Then, 950 μL of Lyse/Fix (BD Biosciences) was added to allow hemolysis and fixation to proceed at 37° C. for 10 minutes. After centrifugation for 5 minutes, the supernatant was removed and 600 μL of a RPMI-1640 medium supplemented with 10% inactivated fetal bovine serum (hereinafter referred to as the medium) was added, followed by centrifugation for 5 minutes, removal of the supernatant, and then washing. After the test sample was washed again with the medium, Rat Anti-Mouse MAdCAM-1 antibody (Southern Biotech) at 0.625 μg/mL was added, followed by incubation for 30 minutes or more. After the test sample was washed with the medium, 50 μg/mL Goat Anti-Rat IgG (H+L) Antibody, FITC (Life Technologies) was added, followed by incubation for 30 minutes or more. After the test sample was washed with the medium, 10 μg/mL PE Rat Anti-Mouse CD4 (BD Pharmigen) was added, followed by incubation for 30 minutes or more. After the test sample was washed with the medium, a ratio of MAdCAM-1 positive cells to CD4 positive cells was measured by using flow cytometry.
From independent test results using different blood samples of two to three persons, a MAdCAM-1 binding inhibiting rate of each test substance at each of various concentrations was obtained under the setting in which, among wells containing no test substances, a well containing no ligand was scored at 100% inhibition and a well containing ligand was scored at 0% inhibition, and then a concentration IC50 which brought about 50% binding inhibition was calculated.
Background: Flow cytometry measures light scatter and fluorescence of single cells or particles in a stream.
As to `Cn1c2c(c(=O)n(-c3ccc(C[C@H](NC(=O)c4cc(F)c(NS(=O)(=O)c5ccc(NC(=O)C(C)(C)C)cc5)cc4F)C(=O)O)cn3)c1=O)COCC2` [Compound A44], the IC50 turned out to be 1 nM.

Take `Cc1c(C)n(C)c(=O)n(-c2ccc(C[C@H](NC(=O)c3cc(F)c(NS(=O)(=O)c4ccc(NC(=O)C(C)(C)C)cn4)cc3F)C(=O)O)cn2)c1=O` [Compound A32]: the IC50 was determined as 1.9 nM.

In the case of `Cn1c(=O)n(-c2ccc(C[C@H](NC(=O)c3cc(F)c(NS(=O)(=O)c4ccc(NC(=O)C(C)(C)C)cc4)cc3F)C(=O)O)cc2)c(=O)c2ccncc21` [Compound A1, (2S)-2-[[4-[[4-(2,2-dimethylpropanoylamino)phenyl]sulfonylamino]-2,5-difluoro-benzoyl]amino]-3-[4-(1-methyl-2,4-dioxo-pyrido[3,4-d]pyrimidin-3-yl)phenyl]propanoic acid], the IC50 was found to be 3.9 nM.

In the case of `Cc1cn(C)c(=O)n(-c2ccc(C[C@H](NC(=O)c3cc(F)c(NS(=O)(=O)c4ccc(NC(=O)C(C)(C)C)cc4)cc3F)C(=O)O)cn2)c1=O` [Compound A54], the half-inhibitory concentration (IC50) came to 1.3 nM.

For the molecule `Cn1c(=O)n(-c2ccc(C[C@H](NC(=O)c3cc(F)c(NS(=O)(=O)c4ccc(NC(=O)C(C)(C)C)cc4)cc3F)C(=O)O)cn2)c(=O)c2ccncc21` [Compound A26], the IC50 turned out to be 2.4 nM.

In the case of `Cn1ccc(=O)n(-c2ccc(C[C@H](NC(=O)c3cc(F)c(NS(=O)(=O)c4ccc(NC(=O)C(C)(C)C)cc4)cc3F)C(=O)O)cn2)c1=O` [Compound A53], the IC50 worked out at 1.8 nM.

Turning to `Cc1c(C)n(C)c(=O)n(-c2ccc(C[C@H](NC(=O)c3cc(F)c(NS(=O)(=O)c4ccc(NC(=O)C(C)(C)C)cc4)cc3F)C(=O)O)cn2)c1=O` [Compound A28], the IC50 came out at 1.2 nM.

Take `Cn1ccc(=O)n(-c2ccc(C[C@H](NC(=O)c3cc(F)c(NS(=O)(=O)c4ccc(NC(=O)C(C)(C)C)cc4)cc3F)C(=O)O)cc2)c1=O` [Compound A42]: the IC50 is 2.2 nM.

With `Cc1cn(C)c(=O)n(-c2ccc(C[C@H](NC(=O)c3cc(F)c(NS(=O)(=O)c4ccc(NC(=O)C(C)(C)C)cc4)cc3F)C(=O)O)cc2)c1=O` [Compound A37], the half-inhibitory concentration (IC50) was found to be 3.3 nM.

For the molecule `Cc1c(C)n(C)c(=O)n(-c2ccc(C[C@H](NC(=O)c3cc(F)c(NS(=O)(=O)c4ccc(NC(=O)C(C)(C)C)cc4)cc3F)C(=O)O)cc2)c1=O` [Compound A8], the IC50 stood at 1.3 nM.

Turning to `Cc1cc(=O)n(-c2ccc(C[C@H](NC(=O)c3cc(F)c(NS(=O)(=O)c4ccc(NC(=O)C(C)(C)C)cc4)cc3F)C(=O)O)cn2)c(=O)n1C` [Compound A45], the concentration for half-maximal inhibition (IC50) worked out at 1.3 nM.

For `Cn1c2c(c(=O)n(-c3ccc(C[C@H](NC(=O)c4cc(F)c(NS(=O)(=O)c5ccc(NC(=O)C(C)(C)C)cc5)cc4F)C(=O)O)cn3)c1=O)CCOC2` [Compound A40], the half-maximal inhibitory concentration (IC50) is 2.3 nM.

Turning to `Cc1cc(=O)n(-c2ccc(C[C@H](NC(=O)c3cc(F)c(NS(=O)(=O)c4ccc(NC(=O)C(C)(C)C)cc4)cc3F)C(=O)O)cc2)c(=O)n1C` [Compound A46], the IC50 came to 1.6 nM.

A word on the IC50: it is the concentration needed to halve the response being measured.
